According to PMC9414972, “α-Glucosidase and α-Amylase Inhibitory Potentials of Quinoline–1,3,4-oxadiazole Conjugates Bearing 1,2,3-Triazole with Antioxidant Activity, Kinetic Studies, and Computational Validation” (Pharmaceuticals, 2022):
pIC50: −log10 of the molar value. Where two headings read alike, the source gives them in different places.

Experiments:
[1] = DPPH radical scavenging activity
Procedure: The DPPH assay is used conventionally to quantify a compound’s ability to trap free radicals.
The compounds were evaluated for their ability to scavenge stable DPPH radicals, using a modification of the method by Turkoglu et al..

[2] = Nitric oxide (NO) scavenging activity
Procedure: The screening of the present compound series for NO radical scavenging activity (Table 2) identified excellent NO scavengers.
The antioxidant capacity of the compounds to scavenge nitric oxide radicals was determined using a modified version of the protocol by Kurian et al.. Briefly, 250 μL of sodium nitroprusside (10 mM) prepared in sodium phosphate buffer (pH 7.4) was added to 500 μL of the compound solution (62.5–500 μM) or distilled water (control). The resulting solution was incubated at 37 °C for 2 h. Then, 250 μL of Griess reagent was added to the reaction mixture before the absorbance was measured at 546 nm. The nitric oxide scavenging activity of the compounds was calculated with the formula: Nitric oxide scavenging (%)=1−Absorbance of compound/Absorbance of control×100

[3] = molecular target: T1, porcine pancreatic amylase (Sus scrofa, UniProt P00690); experiment: α-Amylase inhibitory activity (starch/DNS); type: biochemical
T1 construct: purchased Merck
T1 sequence (P00690 16-511): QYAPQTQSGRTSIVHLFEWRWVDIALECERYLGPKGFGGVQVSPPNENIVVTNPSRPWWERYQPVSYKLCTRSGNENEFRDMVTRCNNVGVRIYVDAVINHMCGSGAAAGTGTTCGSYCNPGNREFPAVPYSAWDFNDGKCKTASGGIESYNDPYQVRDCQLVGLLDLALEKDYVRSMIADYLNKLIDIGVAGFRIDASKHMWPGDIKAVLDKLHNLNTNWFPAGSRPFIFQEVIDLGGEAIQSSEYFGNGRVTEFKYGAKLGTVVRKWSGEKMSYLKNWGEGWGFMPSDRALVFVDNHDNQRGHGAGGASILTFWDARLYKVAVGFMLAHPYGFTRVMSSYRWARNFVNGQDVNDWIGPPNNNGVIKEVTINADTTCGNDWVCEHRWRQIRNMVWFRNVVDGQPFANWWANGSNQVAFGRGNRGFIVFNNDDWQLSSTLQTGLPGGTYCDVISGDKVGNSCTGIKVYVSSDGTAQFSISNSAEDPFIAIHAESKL
Procedure: α-Amylase inhibitory activity was determined according to Ibitoye et al. with slight modifications. […] The reaction in the mixture was terminated with a 1 mL dinitrosalicylate reagent before boiling for 10 min. The cooled mixture was diluted with 5 mL distilled water, and the absorbance was read at 540 nm. The inhibitory activity was calculated using the formula below: % Inhibition=1−Absorbance of compound/Absorbance of control×100

[4] = Ferric reducing antioxidant power (FRAP)
Procedure: FRAP is a ferric (Fe^3+) to ferrous (Fe^2+) ions reduction assay that measures a compound’s electron-donating capacity, i.e., the antioxidant’s reducing power.
The mixture was incubated at 50 °C for 20 min, followed by acidification with 100 μL trichloroacetic acid (10%). After centrifugation at 3500 rpm for 10 min, 200 μL of the supernatant was transferred into another test tube containing 200 μL of distilled water and 0.8 mL of FeCl3 (0.1%). Finally, the absorbance was read at 700 nm, and the total reductive antioxidant power was calculated thus: Ferric reducing antioxidant power (%)=Absorbance of compound/Absorbance of 500µM gallic acid×100

α-glucosidase = molecular target: T2, α-glucosidase (Saccharomyces cerevisiae, UniProt P38158); experiment: biochemical
T2 construct: purchased Merck
T2 sequence (P38158 whole entry): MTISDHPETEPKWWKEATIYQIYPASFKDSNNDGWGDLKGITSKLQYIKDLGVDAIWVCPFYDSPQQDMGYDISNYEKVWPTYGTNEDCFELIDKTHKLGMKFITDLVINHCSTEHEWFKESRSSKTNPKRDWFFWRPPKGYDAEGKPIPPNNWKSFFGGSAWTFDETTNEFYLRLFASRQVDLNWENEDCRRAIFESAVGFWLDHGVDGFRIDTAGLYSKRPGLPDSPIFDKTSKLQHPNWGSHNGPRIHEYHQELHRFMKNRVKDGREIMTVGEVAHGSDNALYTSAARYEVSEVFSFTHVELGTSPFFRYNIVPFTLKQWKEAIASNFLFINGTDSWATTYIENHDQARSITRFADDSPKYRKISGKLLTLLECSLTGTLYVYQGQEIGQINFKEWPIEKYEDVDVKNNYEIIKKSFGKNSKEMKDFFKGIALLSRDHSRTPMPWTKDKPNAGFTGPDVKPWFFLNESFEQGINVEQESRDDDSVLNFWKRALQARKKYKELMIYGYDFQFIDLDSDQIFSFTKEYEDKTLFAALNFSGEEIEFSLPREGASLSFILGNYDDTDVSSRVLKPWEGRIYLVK
Procedure: The α-glucosidase inhibitory activity was evaluated using a previous method with slight modifications.

[5] = DPPH radical scavenging, 30 min, 25 °C
[6] = nitric oxide radical scavenging, 37 °C, 2 h
[7] = porcine pancreatic amylase, starch, pH 6.9, 25 °C, read-out: IC50 α-Amylase
[8] = ferric reducing antioxidant power
[9] = pNPG substrate, pH 6.8, 37 °C, read-out: IC50 α-Glucosidase

Row | SMILES | melting point | pIC50 [1, 5] | pIC50 [2, 6] | pIC50 [3, 7] | pIC50 [4, 8] | pIC50 (α-glucosidase; [9]) | pIC50 (α-glucosidase) | pIC50 [1] | pIC50 [2] | pIC50 [3] | pIC50 [4]
1 | CCSc1nnc(COc2cccc3cccnc23)o1 [4a, 2-(Ethylthio)-5-[(quinolin-8-yloxy)methyl]-1,3,4-oxadiazole] | 80.7 to 83.1 °C | 4.15 | 5.57 | < 3.30 | < 3.30 | 4.38 |  |  |  |  | 
2 | CCCCSc1nnc(COc2cccc3cccnc23)o1 [4c, 2-(Butylthio)-5-[(quinolin-8-yloxy)methyl]-1,3,4-oxadiazole] | 88.3 to 93.5 °C | 4.10 | < 3.30 | < 3.30 | < 3.30 | 4.38 |  |  |  |  | 
3 | CCCCCSc1nnc(COc2cccc3cccnc23)o1 [4d, 2-(Pentylthio)-5-[(quinolin-8-yloxy)methyl]-1,3,4-oxadiazole] | 84.6 to 90.1 °C | 4.08 | 3.34 | < 3.30 | < 3.30 | 4.33 |  |  |  |  | 
4 | CCCCCCSc1nnc(COc2cccc3cccnc23)o1 [4e, 2-(Hexylthio)-5-[(quinolin-8-yloxy)methyl]-1,3,4-oxadiazole] |  | 4.12 | < 3.30 | 3.68 | < 3.30 | 4.32 |  |  |  |  | 
5 | C=CCSc1nnc(COc2cccc3cccnc23)o1 [4f, 2-(Allylthio)-5-[(quinolin-8-yloxy)methyl]-1,3,4-oxadiazole] |  | 4.14 | < 3.30 | < 3.30 | < 3.30 | 4.46 |  |  |  |  | 
6 | CC(C)=CCSc1nnc(COc2cccc3cccnc23)o1 [4g, 2-[(3-Methylbut-2-en-1-yl)thio]-5-[(quinolin-8-yloxy)methyl]-1,3,4-oxadiazole] |  | 4.06 | < 3.30 | < 3.30 | < 3.30 | 4.47 |  |  |  |  | 
7 | BrCCSc1nnc(COc2cccc3cccnc23)o1 [4h, 2-[(2-Bromoethyl)thio]-5-[(quinolin-8-yloxy)methyl]-1,3,4-oxadiazole] |  | 4.12 | < 3.30 |  | < 3.30 |  |  |  |  |  | 
8 | Brc1ccc(CSc2nnc(COc3cccc4cccnc34)o2)cc1 [4m, 2-[(4-Bromobenzyl)thio]-5-[(quinolin-8-yloxy)methyl]-1,3,4-oxadiazole] | 120.9 to 124.1 °C | 4.07 | < 3.30 | < 3.30 | < 3.30 |  | 4.55 |  |  |  | 
9 | O=[N+]([O-])c1ccc(CSc2nnc(COc3cccc4cccnc34)o2)cc1 [4n, 2-[(4-Nitrobenzyl)thio]-5-[(quinolin-8-yloxy)methyl]-1,3,4-oxadiazole] | 156.6 to 160.1 °C | 4.11 | < 3.30 | < 3.30 | < 3.30 | 4.48 |  |  |  |  | 
10 | Fc1cccc(CSc2nnc(COc3cccc4cccnc34)o2)c1 [4o, 2-[(3-Fluorobenzyl)thio]-5-[(quinolin-8-yloxy)methyl]-1,3,4-oxadiazole] |  | 4.11 | < 3.30 | < 3.30 | < 3.30 | 4.31 |  |  |  |  | 
11 | Clc1cccc(CSc2nnc(COc3cccc4cccnc34)o2)c1 [4p, 2-[(3-Chlorobenzyl)thio]-5-[(quinolin-8-yloxy)methyl]-1,3,4-oxadiazole] |  | 4.17 | < 3.30 | < 3.30 | < 3.30 | 4.53 |  |  |  |  | 
12 | Brc1cccc(CSc2nnc(COc3cccc4cccnc34)o2)c1 [4q, 2-[(3-Bromobenzyl)thio]-5-[(quinolin-8-yloxy)methyl]-1,3,4-oxadiazole] |  | 4.10 | < 3.30 | 3.37 | < 3.30 | 4.53 |  |  |  |  | 
13 | Fc1ccc(CSc2nnc(COc3cccc4cccnc34)o2)c(F)c1 [4r, 2-[(2,4-Difluorobenzyl)thio]-5-[(quinolin-8-yloxy)methyl]-1,3,4-oxadiazole] | 98.7 to 105.2 °C | 4.19 | < 3.30 | < 3.30 | < 3.30 | 4.55 |  |  |  |  | 
14 | Fc1ccc(CSc2nnc(COc3cccc4cccnc34)o2)cc1F [4s, 2-[(3,4-Difluorobenzyl)thio]-5-[(quinolin-8-yloxy)methyl]-1,3,4-oxadiazole] | 98.8 to 101.2 °C | 4.06 | < 3.30 | < 3.30 | < 3.30 | 4.45 |  |  |  |  | 
15 | Clc1ccc(CSc2nnc(COc3cccc4cccnc34)o2)c(Cl)c1 [4t, 2-[(2,4-Dichlorobenzyl)thio]-5-[(quinolin-8-yloxy)methyl]-1,3,4-oxadiazole] | 116.7 to 119.7 °C | 4.03 | < 3.30 | < 3.30 | < 3.30 | 4.56 |  |  |  |  | 
16 | Oc1cccc2cccnc12 [8-HQ, 8-hydroxyquinoline, reference compound] |  |  |  |  |  |  | 4.53 | 4.29 | 3.74 | < 3.30 | < 3.30
17 | CCCCCn1cc(CSc2nnc(COc3cccc4cccnc34)o2)nn1 [12a] | 90 to 94 °C | 4.05 | < 3.30 | < 3.30 | < 3.30 | 4.45 |  |  |  |  | 
18 | CCCCCCn1cc(CSc2nnc(COc3cccc4cccnc34)o2)nn1 [12b, 2-{[(1-Hexyl-1H-1,2,3-triazol-4-yl)methyl]thio}-5-[(quinolin-8-yloxy)methyl]-1,3,4-oxadiazole] |  | 4.10 | < 3.30 | < 3.30 | < 3.30 | 4.43 |  |  |  |  | 
19 | c1ccc(Cn2cc(CSc3nnc(COc4cccc5cccnc45)o3)nn2)cc1 [12c, 2-{[(1-Benzyl-1H-1,2,3-triazol-4-yl)methyl]thio}-5-[(quinolin-8-yloxy)methyl]-1,3,4-oxadiazole] | 68 to 71 °C | 4.10 | < 3.30 | < 3.30 | < 3.30 | 4.33 |  |  |  |  | 
20 | Clc1ccc(Cn2cc(CSc3nnc(COc4cccc5cccnc45)o3)nn2)cc1 [12d, 2-{[(1-(4-Chlorobenzyl)-1H-1,2,3-triazol-4-yl)methyl]thio}-5-[(quinolin-8-yloxy)methyl]-1,3,4-oxadiazole] | 92 to 96 °C | 4.09 | < 3.30 | < 3.30 | < 3.30 | 4.42 |  |  |  |  | 
21 | Fc1ccc(Cn2cc(CSc3nnc(COc4cccc5cccnc45)o3)nn2)cc1 [12e, 2-{[(1-(4-Fluorobenzyl)-1H-1,2,3-triazol-4-yl)methyl]thio}-5-[(quinolin-8-yloxy)methyl]-1,3,4-oxadiazole] | 96 to 101 °C | 4.03 | < 3.30 | < 3.30 | < 3.30 | 4.41 |  |  |  |  | 
22 | Fc1ccc(Cn2cc(CSc3nnc(COc4cccc5cccnc45)o3)nn2)cc1F [12j, 2-{[(1-(3,4-Difluorobenzyl)-1H-1,2,3-triazol-4-yl)methyl]thio}-5-[(quinolin-8-yloxy)methyl]-1,3,4-oxadiazole] |  | 3.99 | < 3.30 | < 3.30 | < 3.30 | 4.23 |  |  |  |  | 
23 | O=C1O[C@H]([C@@H](O)CO)C(O)=C1O [Ascorbic acid, reference compound] |  |  |  |  | 3.99 |  |  |  |  |  | 
24 | O=C(O)c1cc(O)c(O)c(O)c1 [Gallic acid, reference compound] |  | 4.57 | 3.14 |  | 4.75 |  |  |  |  |  | 
25 | Sc1nnc(COc2cccc3cccnc23)o1 [compound 3, 5-[(Quinolin-8-yloxy)methyl]-1,3,4-oxadiazole-2-thiol] |  | 4.60 | 3.33 | < 3.30 | < 3.30 | 4.46 |  |  |  |  | 
